In experiment [1] the target is T1, Muscarinic acetylcholine receptor M2 (Homo sapiens, UniProt P08172).
T1 sequence (P08172 whole entry): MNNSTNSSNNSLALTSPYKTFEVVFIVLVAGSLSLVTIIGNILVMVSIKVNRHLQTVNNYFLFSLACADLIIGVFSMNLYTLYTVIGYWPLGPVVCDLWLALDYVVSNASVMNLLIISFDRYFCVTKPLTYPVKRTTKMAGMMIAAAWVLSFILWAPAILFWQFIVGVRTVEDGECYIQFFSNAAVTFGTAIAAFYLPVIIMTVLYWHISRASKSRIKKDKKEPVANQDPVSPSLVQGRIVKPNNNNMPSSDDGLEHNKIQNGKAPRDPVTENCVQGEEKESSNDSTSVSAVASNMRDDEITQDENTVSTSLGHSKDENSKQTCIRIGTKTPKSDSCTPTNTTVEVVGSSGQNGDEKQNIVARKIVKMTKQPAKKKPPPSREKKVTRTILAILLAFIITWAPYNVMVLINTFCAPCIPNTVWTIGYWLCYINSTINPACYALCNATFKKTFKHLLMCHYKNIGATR

The next experiment has as its target T2, Adenosine receptor A1 (Homo sapiens, UniProt P30542).
T2 sequence (P30542 whole entry): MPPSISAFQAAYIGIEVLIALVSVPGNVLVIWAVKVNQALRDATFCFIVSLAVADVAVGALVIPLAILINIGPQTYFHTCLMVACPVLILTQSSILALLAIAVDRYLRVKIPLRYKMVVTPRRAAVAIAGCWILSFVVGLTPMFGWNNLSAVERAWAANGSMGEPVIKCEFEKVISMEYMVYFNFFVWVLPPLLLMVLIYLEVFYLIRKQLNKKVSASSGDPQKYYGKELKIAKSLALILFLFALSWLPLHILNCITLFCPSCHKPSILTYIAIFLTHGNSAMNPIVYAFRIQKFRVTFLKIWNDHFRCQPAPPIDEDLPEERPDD

The next experiment addresses T3, Adenosine receptor A3 (Homo sapiens, UniProt P0DMS8).
T3 sequence (P0DMS8 whole entry): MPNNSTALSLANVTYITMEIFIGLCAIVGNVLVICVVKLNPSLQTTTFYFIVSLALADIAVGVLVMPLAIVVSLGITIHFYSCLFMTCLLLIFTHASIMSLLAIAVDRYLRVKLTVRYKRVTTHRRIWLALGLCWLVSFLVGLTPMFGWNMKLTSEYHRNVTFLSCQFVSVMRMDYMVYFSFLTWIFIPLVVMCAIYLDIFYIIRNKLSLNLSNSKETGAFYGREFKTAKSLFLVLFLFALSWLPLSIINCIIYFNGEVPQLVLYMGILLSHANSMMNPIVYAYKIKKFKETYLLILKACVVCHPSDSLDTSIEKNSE

Experiment [2] concerns the target T4, Alpha-2A adrenergic receptor (Homo sapiens, UniProt P08913).
T4 sequence (P08913 whole entry): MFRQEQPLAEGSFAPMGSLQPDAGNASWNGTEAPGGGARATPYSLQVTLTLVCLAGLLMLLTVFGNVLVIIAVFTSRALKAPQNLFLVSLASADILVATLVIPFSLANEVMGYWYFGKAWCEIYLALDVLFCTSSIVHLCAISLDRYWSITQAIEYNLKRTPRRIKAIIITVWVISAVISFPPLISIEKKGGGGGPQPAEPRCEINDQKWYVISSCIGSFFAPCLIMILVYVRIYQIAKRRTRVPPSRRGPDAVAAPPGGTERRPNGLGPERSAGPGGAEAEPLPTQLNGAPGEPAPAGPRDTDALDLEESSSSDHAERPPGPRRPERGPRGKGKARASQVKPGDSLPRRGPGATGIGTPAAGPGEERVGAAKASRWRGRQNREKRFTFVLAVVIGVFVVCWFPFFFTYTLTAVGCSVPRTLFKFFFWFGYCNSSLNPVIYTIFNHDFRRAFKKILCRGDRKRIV
It counts as functional, cell-based.

Experiment [3] addresses T1, Muscarinic acetylcholine receptor M2. The format is functional, cell-based.
Experiment [4] has as its target Neuronal acetylcholine receptor subunit alpha-4 (Homo sapiens, UniProt P43681).
The target of another experiment is D(1A) dopamine receptor (Homo sapiens, UniProt P21728). It counts as functional, cell-based.
Experiment [5] concerns the target Voltage-gated inwardly rectifying potassium channel KCNH2 (Homo sapiens, UniProt Q12809). The format is functional. To be noted: read-out: AC50.
Another experiment has as its target Motilin receptor (Homo sapiens, UniProt O43193).
The target of experiment [6] is Delta-type opioid receptor (Homo sapiens, UniProt P41143).
Experiment [7] addresses 3',5'-cyclic-AMP phosphodiesterase 4D (Homo sapiens, UniProt Q08499). It counts as functional.
Experiment [8] addresses T5, Amine oxidase [flavin-containing] A (Homo sapiens, UniProt P21397).
T5 sequence (P21397 whole entry): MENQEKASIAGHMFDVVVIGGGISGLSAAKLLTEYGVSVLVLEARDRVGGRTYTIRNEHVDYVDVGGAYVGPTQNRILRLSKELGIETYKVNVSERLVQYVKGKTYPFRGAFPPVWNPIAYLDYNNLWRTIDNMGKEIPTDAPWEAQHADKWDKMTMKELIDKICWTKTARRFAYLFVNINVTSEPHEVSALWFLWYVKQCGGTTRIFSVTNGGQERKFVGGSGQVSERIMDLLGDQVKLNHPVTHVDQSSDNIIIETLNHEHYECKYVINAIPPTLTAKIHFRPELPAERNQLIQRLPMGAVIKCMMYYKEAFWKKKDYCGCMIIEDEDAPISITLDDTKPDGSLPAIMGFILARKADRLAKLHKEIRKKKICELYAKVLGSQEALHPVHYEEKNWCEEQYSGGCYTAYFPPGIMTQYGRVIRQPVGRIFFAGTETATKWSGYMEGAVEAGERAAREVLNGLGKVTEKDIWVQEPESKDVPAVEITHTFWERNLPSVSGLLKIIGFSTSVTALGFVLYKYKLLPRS
It counts as functional.

13 compounds from ChEMBL document CHEMBL5291721, “A preclinical secondary pharmacology resource illuminates target-adverse drug reaction associations of marketed drugs” (Nat Commun, 2023) can be followed below.
Note: assay procedure not described here.

3',5'-cyclic-AMP phosphodiesterase 4D, sequence (Q08499 whole entry): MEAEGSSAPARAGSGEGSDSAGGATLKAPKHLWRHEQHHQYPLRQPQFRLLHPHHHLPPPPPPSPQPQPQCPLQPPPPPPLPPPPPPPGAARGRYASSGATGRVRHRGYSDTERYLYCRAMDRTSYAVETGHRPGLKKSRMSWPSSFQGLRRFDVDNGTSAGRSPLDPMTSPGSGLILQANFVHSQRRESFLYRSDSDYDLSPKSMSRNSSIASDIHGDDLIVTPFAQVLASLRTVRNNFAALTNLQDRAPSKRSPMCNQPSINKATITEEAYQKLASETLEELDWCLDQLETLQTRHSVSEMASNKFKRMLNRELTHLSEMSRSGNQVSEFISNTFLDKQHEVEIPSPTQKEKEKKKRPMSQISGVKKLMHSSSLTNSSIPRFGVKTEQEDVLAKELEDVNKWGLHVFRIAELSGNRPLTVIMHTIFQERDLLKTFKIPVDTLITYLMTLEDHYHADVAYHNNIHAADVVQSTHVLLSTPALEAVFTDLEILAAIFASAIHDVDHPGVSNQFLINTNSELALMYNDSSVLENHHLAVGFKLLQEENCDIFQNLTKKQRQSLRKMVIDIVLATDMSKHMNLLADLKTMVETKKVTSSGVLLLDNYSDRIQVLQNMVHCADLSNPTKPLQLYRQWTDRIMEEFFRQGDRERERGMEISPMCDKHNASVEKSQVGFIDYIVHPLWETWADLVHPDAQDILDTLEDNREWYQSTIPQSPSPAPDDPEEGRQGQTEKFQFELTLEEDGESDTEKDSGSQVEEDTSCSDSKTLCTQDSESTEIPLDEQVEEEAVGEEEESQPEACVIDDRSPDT
Motilin receptor, sequence (O43193 whole entry): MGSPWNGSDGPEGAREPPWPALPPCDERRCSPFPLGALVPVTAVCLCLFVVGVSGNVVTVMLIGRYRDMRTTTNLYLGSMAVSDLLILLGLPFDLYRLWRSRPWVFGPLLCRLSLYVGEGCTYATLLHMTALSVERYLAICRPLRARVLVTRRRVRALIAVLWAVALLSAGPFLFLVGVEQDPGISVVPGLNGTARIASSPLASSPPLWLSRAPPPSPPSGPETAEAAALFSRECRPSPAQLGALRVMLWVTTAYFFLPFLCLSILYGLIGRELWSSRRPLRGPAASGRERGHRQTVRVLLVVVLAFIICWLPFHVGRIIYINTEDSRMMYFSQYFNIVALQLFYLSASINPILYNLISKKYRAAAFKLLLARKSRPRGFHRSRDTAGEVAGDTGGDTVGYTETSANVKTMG
Voltage-gated inwardly rectifying potassium channel KCNH2, sequence (Q12809 whole entry): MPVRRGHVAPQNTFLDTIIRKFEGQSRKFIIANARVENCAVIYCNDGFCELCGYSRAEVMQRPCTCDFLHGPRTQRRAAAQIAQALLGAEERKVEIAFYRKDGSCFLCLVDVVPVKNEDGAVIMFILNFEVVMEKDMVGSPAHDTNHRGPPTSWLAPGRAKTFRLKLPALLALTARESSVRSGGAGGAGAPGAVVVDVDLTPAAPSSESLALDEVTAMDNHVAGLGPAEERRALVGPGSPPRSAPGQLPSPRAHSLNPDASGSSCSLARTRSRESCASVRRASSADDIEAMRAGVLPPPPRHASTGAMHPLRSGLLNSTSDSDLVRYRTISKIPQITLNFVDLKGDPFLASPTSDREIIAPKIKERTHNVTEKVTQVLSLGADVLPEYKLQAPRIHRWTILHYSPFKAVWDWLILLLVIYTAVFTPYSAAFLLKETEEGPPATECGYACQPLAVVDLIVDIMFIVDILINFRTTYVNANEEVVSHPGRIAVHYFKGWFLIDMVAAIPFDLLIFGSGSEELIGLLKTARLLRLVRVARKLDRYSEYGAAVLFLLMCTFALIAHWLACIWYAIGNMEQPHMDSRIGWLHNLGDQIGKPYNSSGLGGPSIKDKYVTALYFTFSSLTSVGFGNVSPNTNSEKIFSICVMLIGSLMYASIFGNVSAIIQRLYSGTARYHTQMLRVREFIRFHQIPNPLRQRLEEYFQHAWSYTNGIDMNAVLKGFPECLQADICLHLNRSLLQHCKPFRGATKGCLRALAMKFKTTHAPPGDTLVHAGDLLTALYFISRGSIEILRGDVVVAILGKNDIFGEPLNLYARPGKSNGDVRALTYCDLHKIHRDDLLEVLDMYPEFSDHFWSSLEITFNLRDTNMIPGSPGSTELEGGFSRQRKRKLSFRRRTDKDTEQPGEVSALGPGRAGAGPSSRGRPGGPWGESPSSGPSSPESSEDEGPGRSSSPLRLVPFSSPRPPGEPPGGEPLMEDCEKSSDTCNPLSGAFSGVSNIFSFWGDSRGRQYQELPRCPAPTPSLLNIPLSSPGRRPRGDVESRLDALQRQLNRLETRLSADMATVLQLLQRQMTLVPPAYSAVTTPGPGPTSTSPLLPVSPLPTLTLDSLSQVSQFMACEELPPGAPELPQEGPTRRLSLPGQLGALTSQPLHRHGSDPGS
Delta-type opioid receptor, sequence (P41143 whole entry): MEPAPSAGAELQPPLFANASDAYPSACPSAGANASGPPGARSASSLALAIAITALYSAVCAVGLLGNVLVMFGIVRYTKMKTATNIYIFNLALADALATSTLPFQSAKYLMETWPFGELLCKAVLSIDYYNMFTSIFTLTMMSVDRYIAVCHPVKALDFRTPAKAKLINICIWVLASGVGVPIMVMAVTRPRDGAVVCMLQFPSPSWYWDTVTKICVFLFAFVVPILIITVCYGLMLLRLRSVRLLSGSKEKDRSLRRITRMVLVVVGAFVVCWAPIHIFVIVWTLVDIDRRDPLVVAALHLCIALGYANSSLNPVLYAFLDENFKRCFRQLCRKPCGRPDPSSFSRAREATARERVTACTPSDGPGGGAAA
Neuronal acetylcholine receptor subunit alpha-4, sequence (P43681 whole entry): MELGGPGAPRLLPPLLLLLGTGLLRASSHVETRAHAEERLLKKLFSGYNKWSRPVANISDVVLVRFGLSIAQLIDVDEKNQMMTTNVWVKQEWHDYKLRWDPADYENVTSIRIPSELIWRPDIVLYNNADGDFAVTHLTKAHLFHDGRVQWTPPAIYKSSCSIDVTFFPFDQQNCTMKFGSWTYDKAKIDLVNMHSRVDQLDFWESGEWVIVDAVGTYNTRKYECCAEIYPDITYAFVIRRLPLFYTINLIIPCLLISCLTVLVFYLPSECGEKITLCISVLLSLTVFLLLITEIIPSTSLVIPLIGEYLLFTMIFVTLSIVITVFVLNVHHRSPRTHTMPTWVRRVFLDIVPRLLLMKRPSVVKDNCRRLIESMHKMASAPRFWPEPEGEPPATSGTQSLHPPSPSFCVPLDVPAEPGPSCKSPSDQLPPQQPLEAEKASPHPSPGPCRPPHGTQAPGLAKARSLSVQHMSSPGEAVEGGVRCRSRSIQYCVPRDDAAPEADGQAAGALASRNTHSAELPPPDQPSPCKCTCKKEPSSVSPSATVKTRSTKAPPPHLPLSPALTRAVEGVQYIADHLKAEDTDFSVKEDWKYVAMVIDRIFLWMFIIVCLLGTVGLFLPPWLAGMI
D(1A) dopamine receptor, sequence (P21728 whole entry): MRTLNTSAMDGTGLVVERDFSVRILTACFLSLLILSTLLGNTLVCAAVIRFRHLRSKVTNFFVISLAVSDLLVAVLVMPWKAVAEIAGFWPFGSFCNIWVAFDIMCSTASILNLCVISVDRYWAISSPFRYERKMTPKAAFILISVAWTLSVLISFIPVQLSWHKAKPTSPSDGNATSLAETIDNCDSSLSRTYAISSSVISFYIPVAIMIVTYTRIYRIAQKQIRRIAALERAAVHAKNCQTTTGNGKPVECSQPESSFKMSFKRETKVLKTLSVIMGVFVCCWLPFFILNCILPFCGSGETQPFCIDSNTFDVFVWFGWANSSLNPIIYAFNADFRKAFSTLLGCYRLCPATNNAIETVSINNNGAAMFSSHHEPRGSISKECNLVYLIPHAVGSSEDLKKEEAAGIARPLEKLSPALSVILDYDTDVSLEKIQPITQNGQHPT

In the case of `CCc1oc2ccccc2c1C(=O)c1cc(I)c(O)c(I)c1` [BENZIODARONE], the AC50 in [1] was greater than 30 µM.

Consider `CN1C(C(=O)Nc2ccccn2)=C(O)c2sc(Cl)cc2S1(=O)=O` [LORNOXICAM], for which the AC50 at Adenosine receptor A1 was greater than 30 µM; on Adenosine receptor A3, greater than 30 µM; in [2], greater than 10 µM; in experiment [3] it was greater than 10 µM; in experiment [4], greater than 10 µM; at D(1A) dopamine receptor it was greater than 10 µM. Also, the AC50 in experiment [5] is greater than 30 µM; at Motilin receptor, greater than 10 µM; in experiment [6] it was greater than 30 µM; in [7] it was greater than 30 µM; in experiment [8], greater than 10 µM.

Regarding `C[C@@H](O)[C@H]1C(=O)N2C(C(=O)O)=C(S[C@@H]3CN[C@H](C(=O)N(C)C)C3)[C@H](C)[C@H]12` [MEROPENEM], the concentration at half-maximal activity (AC50) (on Adenosine receptor A1; at Adenosine receptor A3; in [2]; in experiment [3]; in experiment [4]; on D(1A) dopamine receptor) was greater than 300 µM each time. For the same compound, the concentration at half-maximal activity (AC50) in experiment [5] was greater than 30 µM; on Motilin receptor, greater than 300 µM; in [6] it was greater than 300 µM; in experiment [7], greater than 300 µM; in experiment [8], greater than 300 µM.

On to `CNC1Cc2ccccc2N(C)c2ccccc21` (stereo not drawn) [METAPRAMINE], for which the concentration at half-maximal activity (AC50) (on Adenosine receptor A1; on Adenosine receptor A3; in experiment [2]; in experiment [3]; in experiment [4]; at D(1A) dopamine receptor) was greater than 30 µM in each case. Further, the AC50 in [5] is 5.9 µM; at Motilin receptor it was greater than 30 µM; in experiment [6], greater than 30 µM; in experiment [7], greater than 30 µM; in [8], greater than 30 µM.

Turning to `Clc1ccc(C(c2ccccc2Cl)C(Cl)Cl)cc1` (stereo not drawn) [MITOTANE], the half-maximal activity concentration (AC50) (at Adenosine receptor A1; at Adenosine receptor A3; in [2]; in experiment [3]; in [4]; at D(1A) dopamine receptor) was greater than 10 µM throughout. The AC50 is greater than 30 µM in [5]; greater than 10 µM on Motilin receptor; greater than 30 µM in [6]; greater than 30 µM in experiment [7]; greater than 10 µM in experiment [8].

As for `Cc1nc([N+](=O)[O-])cn1-c1ccc([N+](=O)[O-])cc1` [NITREFAZOLE], the AC50 (at Adenosine receptor A1; on Adenosine receptor A3; in experiment [2]; in experiment [3]; in experiment [4]; at D(1A) dopamine receptor) was greater than 30 µM each time. The AC50 (in experiment [5]; on Motilin receptor; in experiment [6]; in experiment [7]; in [8]) was greater than 30 µM in each case.

In the case of `COc1ccc(CC(C)(C)NC[C@H](O)c2cc(O)cc3c2OCC(=O)N3)cc1` [OLODATEROL], the AC50 at Adenosine receptor A1 was greater than 30 µM; at Adenosine receptor A3, greater than 30 µM; in experiment [2], greater than 30 µM; in [3] it was 5.1 µM; in experiment [4] it was greater than 30 µM; on D(1A) dopamine receptor it was greater than 30 µM. The AC50 in experiment [5] was 6.3 µM; on Motilin receptor it was greater than 30 µM; in [6], greater than 30 µM; in [7], 21 µM; in experiment [8], greater than 30 µM.

For `c1cnc(N2CCN(Cc3ccc4c(c3)OCO4)CC2)nc1` [PIRIBEDIL], the concentration at half-maximal activity (AC50) (on Adenosine receptor A1; at Adenosine receptor A3; in experiment [2]; in experiment [3]; in experiment [4]; on D(1A) dopamine receptor) was greater than 30 µM throughout. For the same compound, the AC50 in experiment [5] was 19 µM; on Motilin receptor, greater than 30 µM; in experiment [6], greater than 30 µM; in experiment [7] it was greater than 30 µM; in experiment [8] it was greater than 30 µM.

Consider `Cn1nnc2c(C(N)=O)ncn2c1=O` [TEMOZOLOMIDE], for which the AC50 (at Adenosine receptor A1; at Adenosine receptor A3; in experiment [2]; in [3]; in experiment [4]; at D(1A) dopamine receptor) was greater than 30 µM in each case. Further, the AC50 (in experiment [5]; at Motilin receptor; in [6]; in experiment [7]; in experiment [8]) was greater than 30 µM in each case.

For `O=C(O[C@H]1C[C@H]2CC[C@@H](C1)[N+]21CCCC1)C(O)(c1ccccc1)c1ccccc1` [TROSPIUM], the concentration at half-maximal activity (AC50) on Adenosine receptor A1 is greater than 30 µM; on Adenosine receptor A3, greater than 30 µM; in experiment [2], greater than 30 µM; in experiment [3], 0.0061 µM; in experiment [4], greater than 30 µM; at D(1A) dopamine receptor, greater than 30 µM. Besides, the concentration at half-maximal activity (AC50) in experiment [5] is 0.63 µM; at Motilin receptor, greater than 30 µM; in [6] it was greater than 30 µM; in [7], greater than 30 µM; in experiment [8], greater than 30 µM.

As for `N[C@@H]1[C@H]2CN(c3nc4c(cc3F)c(=O)c(C(=O)O)cn4-c3ccc(F)cc3F)C[C@@H]12` [TROVAFLOXACIN], the AC50 (on Adenosine receptor A1; at Adenosine receptor A3; in [2]; in [3]; in [4]; at D(1A) dopamine receptor) was greater than 30 µM each time. Moreover, the concentration at half-maximal activity (AC50) (in [5]; on Motilin receptor; in [6]; in experiment [7]; in experiment [8]) was greater than 30 µM in each case.

For the compound `Nc1ccn([C@H]2CC[C@@H](CO)O2)c(=O)n1` [ZALCITABINE], the AC50 (on Adenosine receptor A1; at Adenosine receptor A3; in experiment [2]; in [3]; in [4]; at D(1A) dopamine receptor) was greater than 10 µM in each case. Further, the AC50 in experiment [5] was greater than 30 µM; on Motilin receptor it was greater than 10 µM; in experiment [6] it was greater than 30 µM; in [7], greater than 30 µM; in [8], greater than 10 µM.

On to `NS(=O)(=O)Cc1noc2ccccc12` [ZONISAMIDE], for which the AC50 (at Adenosine receptor A1; at Adenosine receptor A3; in experiment [2]; in experiment [3]; in experiment [4]; at D(1A) dopamine receptor) was greater than 10 µM throughout. In addition, the concentration at half-maximal activity (AC50) in experiment [5] is greater than 30 µM; on Motilin receptor, greater than 10 µM; in [6] it was greater than 30 µM; in [7], greater than 30 µM; in experiment [8], greater than 10 µM.
